Assay [1] deals with T1, ZO-1 d2 (Homo sapiens, UniProt Q07157, DEL264-264).
T1 construct: made in house; host or cells: E. coli (DH5α, BL21 or JM109)
T1 sequence (Q07157 with tags, fused parts or gaps DEL264-264): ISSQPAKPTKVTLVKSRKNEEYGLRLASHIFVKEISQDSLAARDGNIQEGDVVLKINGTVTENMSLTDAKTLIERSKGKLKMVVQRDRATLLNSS
Briefly: G3 assay, binding of biotinylated peptide to GST-PDZ fusion. The conditions noted are these: G3 titration. As to the method: (§1) The G3 assay is identical to the G0 assay with the following exceptions. The peptides are typically present at 0.1 μM rather than 20 μM. The peptides are also pre-incubated with the HRP-streptavidin prior to adding to the assay plate. In the G0 assay, free peptide is incubated with the PDZ proteins prior to the addition of the HRP-streptavidin. Thus, for the G0 assay one can lose signal if the bound peptide dissociates from the PDZ protein prior to the addition of the HRP-streptavidin. In the G3 modified assay the HRP-streptavidin/peptide complex is added to the plate in one step, thus increasing the likelihood that all the bound peptide will be bound to HRP-streptavidin. The G3 modified assay increases the chance of observing weak interaactions.
(§2) Reagents and Supplies • Nunc MaxiSorp 96 well Immuno-plate, Nunc • PBS pH 7.4 (phosphate buffered saline, 8 g NaCl, 0.29 g KCl, 1.44 g Na2HPO4, 0.24 g KH2PO4, add H2O to 1 liter and pH 7.4; 0.2 μm filter) • Assay Buffer: 2% BSA in PBS (20 g of bovine serum albumin per liter PBS, fraction V, ICN Biomedicals, cat#IC15142983 • Goat anti-GST polyclonal Ab, stock 5 mg/ml, stored at 4° C., Amersham Pharmacia cat#27-4577-01 • Dilute 1:1000 in PBS, final concentration 5 μg/ml. • HRP-Streptavidin, 2.5 mg/2 ml stock stored at 4° C., Zymed cat#43-4323, dilute 1:2000 into Assay buffer, final concentration of 0.5 μg/ml • Wash Buffer, PBS • Biotinylated peptides (HPLC purified, stock solution stored in −20° C. freezer) • GST-PRISM proteins (stock stored at −80° C., after 1st thaw store in −10° C. freezer) • TMB (3,3′,5,5′, teramethylbensidine), tablets, Sigma cat.#T5525 • Per plate, dissolve 1 tablet in 1 ml DMSO, add 9 ml Citrate/Phosphate buffer pH 5.4 and 2 μL H2O2 • 0.18M H2SO4, Sigma cat.#S 1526 • 12-w multichannel pipettor & tips • 50 ml reagent reservoirs, Costar#4870 • 50, 15 ml polypropylene conical tubes • Costar Transtar 96 Costar #7605 • Transtar 96 Cartridge Costar #7610 • Molecular Devices microplate reader (450 & 650 nm filters) with SoftMax Pro software • When using reagents stored at or 4° C. or −20° C., remove & keep on ice
(§3) Protocol • 1. Coat plate with 100 μl of 5 μg/ml anti-GST, overnight at 4° C. • 2. Dump contents of plate & out tap dry on paper towels • 3. Block with 200 μl Assay Buffer for 2 hrs at room temperature • 4. Prepare proteins at 5 μg/ml in Assay Buffer • 5. Wash 3× with cold PBS (4° C.), avoiding letting the plates dry out • 6. Add proteins at 50 μl per well, incubate 1 to 2 hrs at 4° C. • 7. Prepare peptides to desired concentration in Assay Buffer • 8. Wash 3× with cold PBS (4° C.), avoiding letting the plates dry out • 9. Add HRP-Streptavidin/peptide complex [prepared by incubating for 20 minutes at room temperature HRP-Streptavidin (1:2000) with the desired biotin-peptide concentration for 20 minutes at room temperature] at 50 μl per well on ice • 10. Place at room temperature for exactly 30 minutes • 11. Promptly wash 5× with PBS at room temperature • 12. Add 100 μl/well TMB substrate (write time on plate) • 13. Incubate in dark at room temperature for a maximum of 30 minutes • 14. Read plate at 25 minutes (650 nm), optional • 15. Stop reaction with 100 μl of 0.18 M H2SO4, 30 minutes after adding TMB Take last reading at 450 nm soon after stopping reaction
(§4) The G3 assay was performed using 0.1 μM peptide representing 11 amino acids of Tat fused to the final 9 amino acids of TRPM7 ([…]; SEQ ID NO:258).
(§5) The G3 assay was performed on a subset of the PDZ domains as in Example II except that the concentration of peptide was 0.002 μM, […], 0.1 μM, 0.2 μM, 1 μM, and 2 μM.
(§6) to calculate the EC50 for the binding of the peptides to the PDZ domains.
(§7) FIGS. 10A and 10B show graphs of the titrations for the Peptide #1829 with ZO-1 d2 and for the Peptide #1839 with INADL d3.

In assay [2] the target is T2, INADL d3 (Homo sapiens, UniProt Q8NI35).
T2 construct: made in house; host or cells: E. coli (DH5α, BL21 or JM109)
T2 sequence (Q8NI35 with tags, fused parts or gaps): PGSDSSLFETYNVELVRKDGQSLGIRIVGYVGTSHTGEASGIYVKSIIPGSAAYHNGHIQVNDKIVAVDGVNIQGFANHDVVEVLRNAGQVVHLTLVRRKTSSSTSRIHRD
The description is as above. The conditions noted are these: G3 titration. The protocol:
as §1, §2, §3, §4, §5, §6, §7

The target of a further assay is T3, RIM2 d1 (Homo sapiens, UniProt Q9UQ26).
T3 construct: made in house; host or cells: E. coli (DH5α, BL21 or JM109)
T3 sequence (Q9UQ26 632-757): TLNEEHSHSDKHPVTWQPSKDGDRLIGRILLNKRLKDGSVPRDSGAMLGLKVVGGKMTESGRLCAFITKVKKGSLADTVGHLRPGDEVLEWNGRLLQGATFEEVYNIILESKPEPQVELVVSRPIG
The experiment in a line: G assays, titrations or binding assays of peptides. The conditions noted are these: peptide demonstrated to bind RIM2 d1 in G assays.

For assay [3], the target named is T1, ZO-1 d2. Briefly: G assays, titrations or binding assays of peptides. The conditions noted are these: peptide demonstrated to bind ZO-1 d2 in G assays.
The target in assay [4] is T2, INADL d3. The experiment in a line: G assays, titrations or binding assays of peptides. The conditions noted are these: peptide demonstrated to bind INADL d3 in G assays.
Description: (§8) In one aspect, the invention provides an assay in which a GST/PDZ fusion protein is immobilized on a surface (G assay). […] In a preferred embodiment, the assay is carried out as follows:
(§9) (1) A PDZ-domain polypeptide is bound to a surface, e.g. a protein binding surface. In a preferred embodiment, a GST/PDZ fusion protein containing one or more PDZ domains is bound to a polystyrene 96-well plate. […] In one embodiment, the GST/PDZ fusion protein is bound via an anti-GST antibody that is coated onto the 96-well plate. Adequate binding to the plate can be achieved when: • a. 100 μl per well of 5 μg/ml goat anti-GST polyclonal antibody (Pierce) in PBS is added to a polystyrene 96-well plate (e.g., Nunc Polysorp) at 4° C. for 12 hours. • b. The plate is blocked by addition of 200 μl per well of PBS/BSA for 2 hours at 4° C. • c. The plate is washed 3 times with PBS. • d. 50 μl per well of 5 μg/ml GST/PDZ fusion protein) or, as a negative control, GST polypeptide alone (i.e. not a fusion protein) in PBS/BSA is added to the plate for 2 hours at 4° C. • e. the plate is again washed 3 times with PBS.
(§10) (2) Biotinylated PL peptides are allowed to react with the surface by addition of 50 μl per well of 20 μM solution of the biotinylated peptide in PBS/BSA for 10 minutes at 4° C., followed by an additional 20 minute incubation at 25° C. The plate is washed 3 times with ice cold PBS.
(§11) (3) The binding of the biotinylated peptide to the GST/PDZ fusion protein surface can be detected using a variety of methods and detectors known to one of skill in the art. In one embodiment, 100 μl per well of 0.5 μg/ml streptavidin-horseradish peroxidase (HRP) conjugate dissolved in BSA/PBS is added and allowed to react for 20 minutes at 4° C. The plate is then washed 5 times with 50 mM Tris pH 8.0 containing 0.2% Tween 20, and developed by addition of 100 μl per well of HRP-substrate solution (TMB, Dako) for 20 minutes at room temperature (RT). The reaction of the HRP and its substrate is terminated by addition of 100 μl per well of 1 M sulfuric acid, and the optical density (O.D.) of each well of the plate is read at 450 um.
(§12) (4) Specific binding of a PL peptide and a PDZ domain polypeptide is determined by comparing the signal from the well(s) in which the PL peptide and PDZ domain polypeptide are combined, with the background signal(s). […] Typically a specific or selective reaction will be at least twice background signal, more typically more than 5 times background, and most typically 10 or more times the background signal. […] Correspondingly, a statistical test (e.g. a T-test) comparing repeated measurements of the signal with repeated measurements of the background will result in a p-value <0.05, more typically a p-value <0.01, and most typically a p-value <0.001 or less. As noted, in an embodiment of the G assay, the signal from binding of a given PL peptide to immobilized (surface bound) GST polypeptide alone is one suitable negative control (sometimes referred to as B1). Because all measurement are done in multiples (i.e. at least duplicate) the arithmetic mean (or, equivalently, average.) of several measurements is used in determining the binding, and the standard error of the mean is used in determining the probable error in the measurement of the binding. The standard error of the mean of N measurements equals the square root of the following: the sum of the squares of the difference between each measurement and the mean, divided by the product of (N) and (N−1). Thus, in one embodiment, specific binding of the PDZ protein to the platebound peptide is determined by comparing the mean signal (“mean S”) and standard error of the signal (“SE”) for a particular PL-PDZ combination with the mean B1.

Residues, ends and D or L forms follow the SMILES beside them. No end group written: not given here. *: point of attachment. Biotin = O=C1N[C@H]2[C@H](CS[C@H]2CCCCC(=O)*)N1

Description for RIM2 d1: as §8, §9, §10, §11, §12

Take `CC[C@H](C)[C@H](NC(=O)[C@H](CC(C)C)NC(=O)[C@H](CCCNC(=N)N)NC(=O)[C@H](CCCNC(=N)N)NC(=O)[C@H](CCC(=O)O)NC(=O)[C@H](CC(=O)O)NC(=O)[C@H](CCC(N)=O)NC(=O)[C@H](CCCNC(=N)N)NC(=O)[C@H](CCCNC(=N)N)NC(=O)[C@H](CCCNC(=N)N)NC(=O)[C@H](CCC(N)=O)NC(=O)[C@H](CCCNC(=N)N)NC(=O)[C@H](CCCNC(=N)N)NC(=O)[C@H](CCCCN)NC(=O)[C@H](CCCCN)NC(=O)[C@H](CCCNC(=N)N)NC(=O)CNC(=O)[C@H](Cc1ccc(O)cc1)NC(=O)CCCC[C@@H]1SC[C@@H]2NC(=O)N[C@@H]21)C(=O)N[C@H](C(=O)N[C@@H](CC(C)C)C(=O)O)C(C)C` [Peptide 1842] (Biotin-YGRKKRRQRRRQDERRLIVL-OH): the “ODmax (450 nm)” value came to 2.30 at ZO-1 d2 [1] and 1.90 on INADL d3 [2]. Besides, the figures for the POZ domain bound entry at RIM2 d1 and at ZO-1 d2 [3] were “RIM2 D1” and “ZO-1 D2”, respectively.
In the case of `CC(C)C[C@H](NC(=O)[C@H](CO)NC(=O)[C@@H](NC(=O)[C@H](CC(C)C)NC(=O)[C@H](CCCNC(=N)N)NC(=O)[C@H](CC(=O)O)NC(=O)CNC(=O)[C@H](CCCNC(=N)N)NC(=O)[C@H](C)NC(=O)[C@H](CCCNC(=N)N)NC(=O)[C@H](CCCNC(=N)N)NC(=O)[C@H](CCCNC(=N)N)NC(=O)[C@H](CCC(N)=O)NC(=O)[C@H](CCCNC(=N)N)NC(=O)[C@H](CCCNC(=N)N)NC(=O)[C@H](CCCCN)NC(=O)[C@H](CCCCN)NC(=O)[C@H](CCCNC(=N)N)NC(=O)CNC(=O)[C@H](Cc1ccc(O)cc1)NC(=O)CCCC[C@@H]1SC[C@@H]2NC(=O)N[C@@H]21)C(C)C)C(=O)O` [Peptide 1843] (Biotin-YGRKKRRQRRRARGDRLVSL-OH; C-terminus assumed), the “ODmax (450 nm)” value on ZO-1 d2 [1] amounted to 2.20; on INADL d3 [2], 1.20. Also, the POZ domain bound entry on RIM2 d1 is on record as “RIM2 D1”; on ZO-1 d2 [3], “ZO-1 D2”.
With `CC[C@H](C)[C@H](NC(=O)[C@H](CCC(N)=O)NC(=O)[C@H](Cc1ccc(O)cc1)NC(=O)[C@H](CCCCN)NC(=O)[C@H](CCCNC(=N)N)NC(=O)[C@H](CC(=O)O)NC(=O)[C@@H](NC(=O)[C@H](CCCNC(=N)N)NC(=O)[C@H](CO)NC(=O)[C@H](CCCNC(=N)N)NC(=O)[C@H](CCCNC(=N)N)NC(=O)[C@H](CCCNC(=N)N)NC(=O)[C@H](CCC(N)=O)NC(=O)[C@H](CCCNC(=N)N)NC(=O)[C@H](CCCNC(=N)N)NC(=O)[C@H](CCCCN)NC(=O)[C@H](CCCCN)NC(=O)[C@H](CCCNC(=N)N)NC(=O)CNC(=O)[C@H](Cc1ccc(O)cc1)NC(=O)CCCC[C@@H]1SC[C@@H]2NC(=O)N[C@@H]21)[C@@H](C)O)C(=O)O` [Peptide 1839] (Biotin-YGRKKRRQRRRSRTDRKYQI-OH; C-terminus assumed), the POZ domain bound entry at INADL d3 [4] is reported as “INADL D3”; at RIM2 d1, “RIM2 D1”. Also, the entries for the “ODmax (450 nm)” value on ZO-1 d2 [1] and at INADL d3 [2] were 2.50 and 1.60, respectively.
In the case of `CC[C@H](C)[C@H](NC(=O)[C@@H](NC(=O)[C@H](CCCNC(=N)N)NC(=O)[C@H](CC(=O)O)NC(=O)[C@H](CO)NC(=O)[C@H](CCCNC(=N)N)NC(=O)[C@H](C)NC(=O)[C@H](CCCNC(=N)N)NC(=O)[C@H](CCCNC(=N)N)NC(=O)[C@H](CCCNC(=N)N)NC(=O)[C@H](CCC(N)=O)NC(=O)[C@H](CCCNC(=N)N)NC(=O)[C@H](CCCNC(=N)N)NC(=O)[C@H](CCCCN)NC(=O)[C@H](CCCCN)NC(=O)[C@H](CCCNC(=N)N)NC(=O)CNC(=O)[C@H](Cc1ccc(O)cc1)NC(=O)CCCC[C@@H]1SC[C@@H]2NC(=O)N[C@@H]21)[C@@H](C)O)C(=O)N[C@@H](Cc1c[nH]c2ccccc12)C(=O)N[C@@H](C)C(=O)O` [Peptide 1829] (Biotin-YGRKKRRQRRRARSDRTIWA-OH; C-terminus assumed), the figures for the POZ domain bound result at INADL d3 [4], at RIM2 d1 and at ZO-1 d2 [3] were “INADL D3”, “RIM2 D1” and “ZO-1 D2”, respectively. Besides, the results for the “ODmax (450 nm)” value on ZO-1 d2 [1] and on INADL d3 [2] were 2.90 and 1.40, respectively.
Turning to `CC(C)[C@H](NC(=O)[C@H](Cc1ccc(O)cc1)NC(=O)[C@H](Cc1ccc(O)cc1)NC(=O)[C@H](CCC(=O)O)NC(=O)[C@H](CCCCN)NC(=O)[C@H](CC(=O)O)NC(=O)[C@H](CCCCN)NC(=O)[C@H](CC(N)=O)NC(=O)[C@H](CCCCN)NC(=O)[C@H](CCCNC(=N)N)NC(=O)[C@H](CCCNC(=N)N)NC(=O)[C@H](CCCNC(=N)N)NC(=O)[C@H](CCC(N)=O)NC(=O)[C@H](CCCNC(=N)N)NC(=O)[C@H](CCCNC(=N)N)NC(=O)[C@H](CCCCN)NC(=O)[C@H](CCCCN)NC(=O)[C@H](CCCNC(=N)N)NC(=O)CNC(=O)[C@H](Cc1ccc(O)cc1)NC(=O)CCCC[C@@H]1SC[C@@H]2NC(=O)N[C@@H]21)C(=O)O` [Peptide 1852] (Biotin-YGRKKRRQRRRKNKDKEYYV-OH; C-terminus assumed), the entries for the “ODmax (450 nm)” value on ZO-1 d2 [1] and on INADL d3 [2] were 2.60 and 2.40, respectively. The POZ domain bound entry on RIM2 d1 is given as “RIM2 D1”; at ZO-1 d2 [3], “ZO-1 D2”.
On to `C[C@H](NC(=O)[C@H](Cc1c[nH]c2ccccc12)NC(=O)[C@H](Cc1ccc(O)cc1)NC(=O)[C@H](CCCCN)NC(=O)[C@H](CCCNC(=N)N)NC(=O)[C@H](CC(=O)O)NC(=O)[C@@H](NC(=O)[C@H](CCCNC(=N)N)NC(=O)[C@H](CO)NC(=O)[C@H](CCCNC(=N)N)NC(=O)[C@H](CCCNC(=N)N)NC(=O)[C@H](CCCNC(=N)N)NC(=O)[C@H](CCC(N)=O)NC(=O)[C@H](CCCNC(=N)N)NC(=O)[C@H](CCCNC(=N)N)NC(=O)[C@H](CCCCN)NC(=O)[C@H](CCCCN)NC(=O)[C@H](CCCNC(=N)N)NC(=O)CNC(=O)[C@H](Cc1ccc(O)cc1)NC(=O)CCCC[C@@H]1SC[C@@H]2NC(=O)N[C@@H]21)[C@@H](C)O)C(=O)O` [Peptide 1832] (Biotin-YGRKKRRQRRRSRTDRKYWA-OH; C-terminus assumed), for which the POZ domain bound result is given as “INADL D3” at INADL d3 [4], “RIM2 D1” at RIM2 d1 and “ZO-1 D2” on ZO-1 d2 [3]. Also, the “ODmax (450 nm)” value came to 2.10 on ZO-1 d2 [1] and 0.60 on INADL d3 [2].
For “Biotin-YGRKKRRQRRRSRTDRLEYV [Peptide 1846]”, the “ODmax (450 nm)” value on INADL d3 [2] was determined as 1.50. In addition, the POZ domain bound entry on RIM2 d1 is reported as “RIM2 D1”.

Source of the values: US7858322B2, “Method of determining inhibition of binding to TRPM7 protein” (NoNo, Inc., priority 2003, dated 2010).
